Measured values as given in patent publication US11795177B2, “Substituted quinoline analogs as aldehyde dehydrogenase 1A1 (ALDH1A1) inhibitors” (THE UNITED STATES OF AMERICA, AS REPRESENTED BY THE …, priority 2017, dated 2023).
Counter-ions that a name gives are not always drawn.

Columns and labels:
ALDH1A1 enzyme = biological target: T1, ALDH1A1 enzyme (Homo sapiens, UniProt P00352); assay: ALDH1A1 enzymatic assay (in vitro); type: biochemical; conditions: ALDH1A1 enzyme 20 nM, NAD+ 1 mM, propionaldehyde 80 μM; read-out: ALDH1A1 IC50
T1 sequence (P00352 1-501): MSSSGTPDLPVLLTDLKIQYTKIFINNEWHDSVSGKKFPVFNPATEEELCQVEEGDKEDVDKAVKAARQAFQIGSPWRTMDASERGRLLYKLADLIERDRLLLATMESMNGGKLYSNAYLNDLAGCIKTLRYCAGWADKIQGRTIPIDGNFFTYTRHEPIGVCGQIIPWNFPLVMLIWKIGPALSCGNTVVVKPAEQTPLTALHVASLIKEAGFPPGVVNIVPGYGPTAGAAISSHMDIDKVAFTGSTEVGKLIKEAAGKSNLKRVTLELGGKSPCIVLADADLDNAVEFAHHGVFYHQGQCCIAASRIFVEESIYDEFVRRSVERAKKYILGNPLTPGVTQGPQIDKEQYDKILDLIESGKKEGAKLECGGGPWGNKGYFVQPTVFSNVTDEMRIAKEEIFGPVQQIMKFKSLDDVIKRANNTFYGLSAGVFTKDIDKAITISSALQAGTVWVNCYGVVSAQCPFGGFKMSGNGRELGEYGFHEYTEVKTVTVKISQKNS
How it was run: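 ALDH1A1 (20 nM final) in 100 mM HEPES pH 7.5, 0.01% Tween 20 was preincubated 15 min at RT with compound (968 pM–57.2 μM final), then started with 1 mM NAD+ and 80 μM propionaldehyde. NADH fluorescence (ex 340/em 450 nm) followed kinetically for 10 min; change normalized to no-inhibitor and no-enzyme controls for percent inhibition and curve fitting.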

MIA PaCa-2 cells = assay: MIA PaCa2 cell-based assay (1,536-well high-content imaging ALDEFLUOR assay); set-up: species or system human; conditions: Homo sapiens, 0.5 h, ALDEFLUOR BAAA substrate 500 nM, 30 minutes
How it was run: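 MIA PaCa-2 cells (1,000/well), plated overnight, given BAAA substrate (500 nM) plus Hoechst 33342 (0.5 nM), then compound (16-point, 1.4 nM–47.8 μM final; 0.5% DMSO). After 30 min at 37° C, ALDH activity imaged by high-content microscopy as BAA-retaining (FITC) cells versus Hoechst-stained nuclei.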

Row | Compound | IC50 (ALDH1A1 enzyme) | IC50 (MIA PaCa-2 cells)
1 | CN(C)C(=O)Cn1cc(NC(=O)c2cnc3ccc(F)cc3c2-c2ccc(C3(C#N)CC3)cc2)cn1 [Cpd. 346, 4-(4-(1-cyanocyclopropyl)phenyl)-N-(1-(2-(dimethylamino)-2-oxoethyl)-1H-pyrazol-4-yl)-6-fluoroquinoline-3-carboxamide] | 1 to 10 µM | > 10 µM
2 | CC1(C#N)CCN(c2c(C(=O)N3CCN(S(C)(=O)=O)CC3)cnc3ccccc23)CC1 [Example 97, 4-methyl-1-(3-(4-(methylsulfonyl)piperazine-1-carbonyl)quinolin-4-yl)piperidine-4-carbonitrile] | < 0.5 µM | > 10 µM
3 | COc1ccc2ncc(C(=O)N3CCS(=O)(=O)CC3)c(N3CCC4(CC3)OCCO4)c2c1 [Example 36, (1,1-dioxidothiomorpholino)(6-methoxy-4-(1,4-dioxa-8-azaspiro[4.5]decan-8-yl)quinolin-3-yl)methanone] | < 0.5 µM | > 10 µM
4 | N#CC1(c2ccc(-c3c(C(=O)Nc4cnn(CCO)c4)cnc4ccc(F)cc34)cc2)CC1 [Cpd. 343, 4-(4-(1-cyanocyclopropyl)phenyl)-6-fluoro-N-(1-(2-hydroxyethyl)-1H-pyrazol-4-yl)quinoline-3-carboxamide] | < 0.5 µM | < 0.5 µM
5 | CS(=O)(=O)N1CCN(C(=O)c2cnc3ccc(F)cc3c2N2CCC3(CC2)OCCO3)CC1 [Example 52, (6-fluoro-4-(1,4-dioxa-8-azaspiro[4.5]decan-8-yl)quinolin-3-yl)(4-(methylsulfonyl)piperazin-1-yl)methanone] | < 0.5 µM | 1 to 10 µM
6 | CCC(=O)N1CCN(C(=O)c2cnc3ccc(Cl)cc3c2N2CCC(C)(C#N)CC2)CC1 [Example 118, 1-(6-chloro-3-(4-propionylpiperazine-1-carbonyl)quinolin-4-yl)-4-methylpiperidine-4-carbonitrile] | < 0.5 µM | 1 to 10 µM
7 | COc1ccc2ncc(C(=O)N3CCN(c4ccncc4)CC3)c(N3CCC4(CC3)OCCO4)c2c1 [Example 15, (6-methoxy-4-(1,4-dioxa-8-azaspiro[4.5]decan-8-yl)quinolin-3-yl)(4-(pyridin-4-yl)piperazin-1-yl)methanone, TFA] | 1 to 10 µM | > 10 µM
8 | CC(C)C1CCN(c2c(C(=O)N3CCN(C(=O)C4CC4)CC3)cnc3ccc(F)cc23)CC1 [Example 74, (4-(cyclopropanecarbonyl)piperazin-1-yl)(6-fluoro-4-(4-isopropylpiperidin-1-yl)quinolin-3-yl)methanone] | < 0.5 µM | 1 to 10 µM
9 | COC1(C)CCN(c2c(C(=O)N3CCN(C(=O)C4CC4)CC3)cnc3ccc(F)cc23)CC1 [Example 61, (4-(cyclopropanecarbonyl)piperazin-1-yl)(6-fluoro-4-(4-methoxy-4-methylpiperidin-1-yl)quinolin-3-yl)methanone] | < 0.5 µM | > 10 µM
10 | COc1ccc2ncc(C(=O)N3CCN(C(=O)C4CC4)CC3)c(N3CCC(C)(C#N)CC3)c2c1 [Example 27, 1-(3-(4-(cyclopropanecarbonyl)piperazine-1-carbonyl)-6-methoxyquinolin-4-yl)-4-methylpiperidine-4-carbonitrile] | < 0.5 µM | 1 to 10 µM
11 | CC1(C#N)CCN(c2c(C(=O)N3CCN(S(C)(=O)=O)CC3)cnc3ccc(Cl)cc23)CC1 [Example 119, 1-(6-chloro-3-(4-(methylsulfonyl)piperazine-1-carbonyl)quinolin-4-yl)-4-methylpiperidine-4-carbonitrile] | < 0.5 µM | 1 to 10 µM
12 | COc1c(F)cc2c(N3CCC(C)(C#N)CC3)c(C(=O)N3CCN(C(=O)C4CC4)CC3)cnc2c1F [Example 127, 1-(3-(4-(cyclopropanecarbonyl)piperazine-1-carbonyl)-6,8-difluoro-7-methoxyquinolin-4-yl)-4-methylpiperidine-4-carbonitrile] | < 0.5 µM | 1 to 10 µM
13 | COc1ccc2ncc(C(=O)N3CCOCC3)c(N3CCC4(CC3)OCCO4)c2c1 [Example 39, (6-methoxy-4-(1,4-dioxa-8-azaspiro[4.5]decan-8-yl)quinolin-3-yl)(morpholino)methanone] | 0.5 to 1 µM | > 10 µM
14 | CC1(C#N)CCN(c2c(C(=O)N3CCN(C(=O)C4CC4)CC3)cnc3c(F)c(F)c(F)cc23)CC1 [Example 128, 1-(3-(4-(cyclopropanecarbonyl)piperazine-1-carbonyl)-6,7,8-trifluoroquinolin-4-yl)-4-methylpiperidine-4-carbonitrile] | < 0.5 µM | 1 to 10 µM
15 | O=C(c1cnc2c(F)c(F)c(F)cc2c1N1CCC2(CC1)OCCO2)N1CCN(C(=O)C2CC2)CC1 [Example 124, (4-(cyclopropanecarbonyl)piperazin-1-yl)(6,7,8-trifluoro-4-(1,4-dioxa-8-azaspiro[4.5]decan-8-yl)quinolin-3-yl)methanone] | < 0.5 µM | 1 to 10 µM

Next, values leading:

Row | IC50 (ALDH1A1 enzyme) | IC50 (MIA PaCa-2 cells) | Compound
16 | < 0.5 µM | < 0.5 µM | CN(C)S(=O)(=O)N1CCN(C(=O)c2cnc3cc(F)c(F)cc3c2N2CCC(C)(C#N)CC2)CC1 [Example 177, 4-(4-(4-cyano-4-methylpiperidin-1-yl)-6,7-difluoroquinoline-3-carbonyl)-N,N-dimethylpiperazine-1-sulfonamide]
17 | 1 to 10 µM | > 10 µM | CC1(C#N)CCN(c2c(C(=O)N3CCN(C(=O)N4CCCC4)CC3)cnc3ccc(F)cc23)CC1 [Example 155, 1-(6-fluoro-3-(4-(pyrrolidine-1-carbonyl)piperazine-1-carbonyl)quinolin-4-yl)-4-methylpiperidine-4-carbonitrile]
18 | < 0.5 µM | > 10 µM | O=C(c1cnc2ccc(F)cc2c1N1CCC2(CC1)OCCO2)N1CCN(S(=O)(=O)N2CCCC2)CC1 [Example 153, (6-fluoro-4-(1,4-dioxa-8-azaspiro[4.5]decan-8-yl)quinolin-3-yl)(4-(pyrrolidin-1-ylsulfonyl)piperazin-1-yl)methanone]
19 | 1 to 10 µM | > 10 µM | C=CC(=O)N1CCN(c2c(C(=O)N3CCN(S(C)(=O)=O)CC3)cnc3ccc(F)cc23)CC1 [Example 220, 1-(4-(6-fluoro-3-(4-(methylsulfonyl)piperazine-1-carbonyl)quinolin-4-yl)piperazin-1-yl)prop-2-en-1-one]
20 | < 0.5 µM | 1 to 10 µM | CN(C)C(=O)N1CCN(C(=O)c2cnc3cc(F)c(F)cc3c2N2CCC3(CC2)OCCO3)CC1 [Example 181, 4-(6,7-difluoro-4-(1,4-dioxa-8-azaspiro[4.5]decan-8-yl)quinoline-3-carbonyl)-N,N-dimethylpiperazine-1-carboxamide]
21 | < 0.5 µM | < 0.5 µM | CN(C)C(=O)N1CCN(C(=O)c2cnc3ccc(Cl)cc3c2-c2ccc(C3(C#N)CC3)cc2)CC1 [Example 296, 4-(6-chloro-4-(4-(1-cyanocyclopropyl)phenyl)quinoline-3-carbonyl)-N,N-dimethylpiperazine-1-carboxamide]
22 | < 0.5 µM | 1 to 10 µM | CC1(C#N)CCN(c2c(C(=O)N3CCC(C(=O)C4CC4)CC3)cnc3c(F)cc(F)cc23)CC1 [Example 195, 1-(3-(4-(cyclopropanecarbonyl)piperidine-1-carbonyl)-6,8-difluoroquinolin-4-yl)-4-methylpiperidine-4-carbonitrile]
23 | < 0.5 µM | 1 to 10 µM | N#CC1(c2ccc(Cl)cc2)CCN(c2c(C(=O)N3CCN(C(=O)C4CC4)CC3)cnc3ccc(F)cc23)CC1 [Example 267, 4-(4-chlorophenyl)-1-(3-(4-(cyclopropanecarbonyl)piperazine-1-carbonyl)-6-fluoroquinolin-4-yl)piperidine-4-carbonitrile]
24 | 1 to 10 µM | 1 to 10 µM | CC1(C#N)CCN(c2c(C(=O)N3CCN(C(=O)N4CCCC4)CC3)cnc3c(F)cc(F)cc23)CC1 [Example 165, 1-(6,8-difluoro-3-(4-(pyrrolidine-1-carbonyl)piperazine-1-carbonyl)quinolin-4-yl)-4-methylpiperidine-4-carbonitrile]
25 | < 0.5 µM | 0.5 to 1 µM | CN(C)S(=O)(=O)N1CCN(C(=O)c2cnc3cc(F)c(F)cc3c2N2CCC3(CC2)OCCO3)CC1 [Example 172, 4-(6,7-difluoro-4-(1,4-dioxa-8-azaspiro[4.5]decan-8-yl)quinoline-3-carbonyl)-N,N-dimethylpiperazine-1-sulfonamide]
26 | < 0.5 µM | 1 to 10 µM | CS(=O)(=O)C1CCN(C(=O)c2cnc3c(F)cc(F)cc3c2N2CCC3(CC2)OCCO3)CC1 [Example 186, (6,8-difluoro-4-(1,4-dioxa-8-azaspiro[4.5]decan-8-yl)quinolin-3-yl)(4-(methylsulfonyl)piperidin-1-yl)methanone]
